Reference: patent US20140127316A1, “PROPOLIS AND CAFFEIC ACID PHENETHYL ESTER AND USES THEREOF” (NEW YORK UNIVERSITY, priority 2011, published 2014)

Columns and labels:
[1] = system: histone deacetylases (HDAC); assay: Western blotting of acetylated histone proteins in breast cancer cell lines; assay type: cell-based, human; conditions: MDA-231 and MCF-7 cells, FIG. 2
Source text: (§1) These cell lines serve as in vitro breast cancer models. […] This typically signifies the inhibition of histone deacetylases and is used as a readout of this process via Western blotting. […] Further, FIGS. 3 and 4 provide additional evidence of the epigenetic changes that occur with CAPE and propolis resulting from HDAC inhibition. FIG. 3 depicts the downregulation of the estrogen receptor (ER) and progesterone receptor (PR) in MCF-7 cells and the downregulation of the epidermal growth factor receptor (EGFR) in MDA-231 cells (FIG. 4B). The re-expression of a previously silenced gene, (ER), a key function of HDAC inhibition, is depicted by the upregulation of the estrogen receptor in the ER-negative MDA-231 cell line (FIG. 4A). Furthermore, we have shown the HDAC inhibitor activity is not just restricted to breast cancer, but also in lymphoma (FIG. 9).

[2] = system: histone deacetylases (HDAC); assay: Western blotting of acetylated histone H3 in lymphoma cell lines; assay type: cell-based; conditions: RIVA, LY 1, SU-DHL6 lymphoma cell lines, FIG. 9
Source text: FIG. 9 illustrates by Western Blotting CAPE induced hyperacetylation of Histone Proteins (Ac H3) in the indicated lymphoma cell lines (RIVA, LY 1, SU-DHL6).
as §1

estrogen receptor (ER) [3] = assay: Immunoblotting of ER in MCF-7 cells; assay type: cell-based; conditions: FIG. 3
[4] = system: progesterone receptor (PR); assay: Immunoblotting of PR in MCF-7 cells; assay type: cell-based; conditions: FIG. 3
estrogen receptor (ER) [5] = assay: ER re-expression in MDA-231 cells by immunofluorescence and RT-PCR; assay type: cell-based; conditions: ER-negative MDA-231 cells, FIG. 4A
[6] = system: epidermal growth factor receptor (EGFR); assay: Immunoblotting of EGFR in MDA-231 cells; assay type: cell-based; conditions: FIG. 4B
p-Her2 = assay: Immunoblotting of phosphorylated Her2 in SKBR3 cells; assay type: cell-based; conditions: FIG. 5
Source text: The HDAC inhibition seen in many BC cell lines by CAPE and propolis results in the decrease of EGFR over-expression and induction of ER in MDA-231 cells and decrease in ER and PR expression in MCF-7 cells (FIG. 3, 4). CAPE and Propolis cause a decrease in p-Her2, the activated form of Her 2 in SKBR3 cells, likely through intracellular signaling mechanisms (FIG. 5). […] To establish that the epigenetic effects of CAPE can be recapitulated in the natural product, we determined the concentration of CAPE in propolis by HPLC. […] Furthermore, the enhanced effects of HDAC inhibition with propolis, compared to CAPE alone, make it a suitable candidate for a clinical trial in any area of oncology.

MDA-231 xenografts = MDA-231 xenografts in nude mice; assay type: in vivo
Description: (§2) Nude mice bearing MDA-231 xenografts were fed CAPE-containing diets and/or treated topically with CAPE, and tumors measured twice/week. bCSC (breast CSC) were isolated from MDA-231 cells and xenografts, and propagated as mammospheres. Cell growth was analyzed using MTT and cell cycle by flow cytometry. Apoptosis was determined by co-staining bCSC with Annexin V and propidium iodide.

[7] = system: bCSC isolated from MDA-231 cells; assay: Breast cancer stem cell (bCSC) clonal growth and self-renewal, mammospheres and soft agar; assay type: cell-based, human
Description: as §2

[8] = system: MDA-MB-231 (MDA-231) cells; assay: Cell growth of MDA-231 cells (MTT); assay type: cell-based, human
Description: as §2

[9] = system: normal human mammary epithelial cells; assay: Effect on normal mammary epithelial cells; assay type: cell-based
[10] = system: multidrug resistance 1 (mdr-1) gene; assay: Gene expression microarray analysis; assay type: cell-based
VEGF = conditions: MDA-231 cells; cited from earlier work
endothelial cells = conditions: cited from earlier work
NF-κB = conditions: cited from earlier work

O=C(/C=C/c1ccc(O)c(O)c1)OCCc1ccccc1 [CAPE, caffeic acid phenethyl ester]
HDAC inhibition (accumulation of acetylated histone proteins) [1]: HDAC inhibitors | Acetylation of histone proteins (Ac H3) [2]: hyperacetylation | ER expression (estrogen receptor (ER) [3]): downregulation | PR expression [4]: downregulation | ER expression (re-expression of silenced gene) (estrogen receptor (ER) [5]): upregulation | EGFR expression [6]: downregulation | p-Her2 expression (p-Her2): decrease | Growth of MDA-231 xenografts (MDA-231 xenografts; dietary CAPE): significantly inhibited | Tumor volume (MDA-231 xenografts; subsequent topical treatment after dietary CAPE): further decreased | bCSC clonal growth [7]: decreased | bCSC and progenitor self-renewal (growth in soft agar) ([7]; pretreatment with 20 μM): decreased growth in soft agar | Growth of MDA-231 cells [8]: inhibits growth | Effect on normal cells [9]: innocuous | mdr-1 gene expression [10]: down-regulates | VEGF secretion (VEGF): decreases | Tubule formation (endothelial cells): inhibits | NF-κB inhibition (NF-κB): inhibits

Cc1[nH]c2ccccc2c1CCNCc1ccc(/C=C/C(=O)NO)cc1 [LBH 589, reference compound]
ER expression (re-expression of silenced gene) (estrogen receptor (ER) [5]): re-expression
